Type in all cases: biochemical
One assay concerns the target Abl (h) (Homo sapiens, UniProt P00519). Kind of assay: Abl human kinase assay (glass-fiber filter). Conditions: test concentration of 10^−6M; for inhibition at 1 µM: read-out: C1 score (inhibition of Abl human). The method, then: (§1) In the glass-fiber filter technology the activity of the kinase of interest is measured using an appropriate substrate that is incubated with the aforementioned kinase protein in the presence of (^33P) radiolabeled ATP. (^33P) Phosphorylation of the substrate is subsequently measured as radioactivity bound on a glass fiber-filter.
(§2) All kinases are pre-diluted to a 10× working concentration prior to addition into the assay. The composition of the dilution buffer for each kinase is detailed below.
(§3) (specific activity approx. 500 cpm/pmol, concentration as required). The reaction is initiated by the addition of the MgATP mix. After incubation for 40 minutes at room temperature, the reaction is stopped by the addition of 5 μl of a 3% phosphoric acid solution. 10 μl of the reaction is then spotted onto a P30 filtermat and washed three times for 5 minutes in 75 mM phosphoric acid and once in methanol prior to drying and scintillation counting.

Another assay deals with cSRC (h) (Homo sapiens, UniProt P12931). Kind of assay: cSRC human kinase assay (glass-fiber filter). Conditions: test concentration of 10^−6M; for inhibition at 1 µM: read-out: C3 score (inhibition of cSRC human). As for the experimental part:
(§4) The in vitro inhibition of a panel of kinases was assessed using either the glass-fiber filter technology as described by Davies, S. P. et al., Biochem J. […] In the glass-fiber filter technology the activity of the kinase of interest is measured using an appropriate substrate that is incubated with the aforementioned kinase protein in the presence of (^33P) radiolabeled ATP. (^33P) Phosphorylation of the substrate is subsequently measured as radioactivity bound on a glass fiber-filter. All kinases are pre-diluted to a 10× working concentration prior to addition into the assay. The composition of the dilution buffer for each kinase is detailed below. […] The reaction is initiated by the addition of the MgATP mix. […] 10 μl of the reaction is then spotted onto a P30 filtermat and washed three times for 5 minutes in 75 mM phosphoric acid and once in methanol prior to drying and scintillation counting.

The next assay deals with EGFR (h) (Homo sapiens, UniProt P00533). Kind of assay: EGFR human kinase assay (glass-fiber filter). Conditions: test concentration of 10^−6M. As for the experimental part:
as §1, §2
as §3, with “In a final reaction volume of 25 μl, EGFR (h) (5-10 mU) is incubated with 8 mM MOPS pH 7.0, 0.2 mM EDTA, 10 mM MnCl2, 0.1 mg/ml poly(Glu, Tyr) 4:1, 10 mM MgAcetate and [γ-^33P-ATP] (specific” for “(specific”, “Filtermat A” for “P30 filtermat”

The next assay concerns the target Flt3 (h) (Homo sapiens, UniProt P36888). Kind of assay: Flt3 human kinase assay (glass-fiber filter). Conditions: test concentration of 10^−6M; for inhibition at 1 µM: read-out: C6 score (inhibition of Flt3 human). As for the experimental part: (§5) The in vitro inhibition of a panel of kinases was assessed using either the glass-fiber filter technology as described by Davies, S. P. et al., Biochem J. (2000), 351; p. 95-105.
as §1, §2
In a final reaction volume of 25 μl, Flt3 (h) (5-10 mU) is incubated with 8 mM MOPS pH 7.0, 0.2 mM EDTA, 50 μM […], 10 mM MgAcetate and [γ-^33P-ATP] (specific activity approx. 500 cpm/pmol, concentration as required). The reaction is initiated by the addition of the MgATP mix. After incubation for 40 minutes at room temperature, the reaction is stopped by the addition of 5 μl of a 3% phosphoric acid solution. 10 μl of the reaction is then spotted onto a P30 filtermat and washed three times for 5 minutes in 75 mM phosphoric acid and once in methanol prior to drying and scintillation counting.

The next assay deals with Fms (h) (Homo sapiens, UniProt P07333). Kind of assay: Fms human kinase assay (glass-fiber filter). Conditions: test concentration of 10^−6M; read-out: C7 score (inhibition of Fms human). As for the experimental part:
as §5, §1, §2
In a final reaction volume of 25 μl, Fms (h) (5-10 mU) is incubated with 8 mM MOPS pH 7.0, 0.2 mM EDTA, 250 μM […], 10 mM MgAcetate and [γ-^33P-ATP] (specific activity approx. 500 cpm/pmol, concentration as required). The reaction is initiated by the addition of the MgATP mix. After incubation for 40 minutes at room temperature, the reaction is stopped by the addition of 5 μl of a 3% phosphoric acid solution. 10 μl of the reaction is then spotted onto a P30 filtermat and washed three times for 5 minutes in 75 mM phosphoric acid and once in methanol prior to drying and scintillation counting.

The target in a further assay is GSK3B (h) (Homo sapiens, UniProt P49841). Kind of assay: GSK3β human kinase assay (glass-fiber filter). Conditions: test concentration of 10^−6M; for inhibition at 1 µM: read-out: C8 score (inhibition of GSK3β human). The method, then:
as §5, §1, §2
In a final reaction volume of 25 μl, GSK3B (h) (5-10 mU) is incubated with 8 mM MOPS pH 7.0, 0.2 mM EDTA, 20 μM […](p)EDEEE (phospho GS2 peptide), 10 mM MgAcetate and [γ-^33P-ATP] (specific activity approx. 500 cpm/pmol, concentration as required). The reaction is initiated by the addition of the MgATP mix. After incubation for 40 minutes at room temperature, the reaction is stopped by the addition of 5 μl of a 3% phosphoric acid solution. 10 μl of the reaction is then spotted onto a P30 filtermat and washed three times for 5 minutes in 50 mM phosphoric acid and once in methanol prior to drying and scintillation counting.

The target in the next assay is Lck (h) (Homo sapiens, UniProt P06239). In words: Lck human kinase assay (glass-fiber filter). Conditions: test concentration of 10^−6M; for inhibition at 1 µM: read-out: C9 score (inhibition of Lck human). As for the experimental part: as §4, with “below. [table]” for “below.”
The target in a further assay is Lyn (h) (Homo sapiens, UniProt P07948). In words: Lyn human kinase assay (glass-fiber filter). As to conditions: test concentration of 10^−6M; for inhibition at 1 µM: read-out: C10 score (inhibition of Lyn human). The method, then: as §1, §2
In a final reaction volume of […] (h) (5-10 mU) is incubated with 50 mM Tris pH 7.5, 0.1 mM EGTA, 0.1 mM Na3VO4, 0.1% O-mercaptoethanol, 0.1 mg/ml poly(Glu, Tyr) 4:1, 10 mM MgAcetate and [γ-^33P-ATP] (specific activity approx. 500 cpm/pmol, concentration as required). The reaction is initiated by the addition of the MgATP mix. After incubation for 40 minutes at room temperature, the reaction is stopped by the addition of 5 μl of a 3% phosphoric acid solution. 10 μl of the reaction is then spotted onto a Filtennat A and washed three times for 5 minutes in 75 mM phosphoric acid and once in methanol prior to drying and scintillation counting.

For a further assay, the target named is Yes (h) (Homo sapiens, UniProt P07947). Kind of assay: Yes human kinase assay (glass-fiber filter). As to conditions: test concentration of 10^−6M; for inhibition at 1 µM: read-out: C11 score (inhibition of Yes human). As for the experimental part: as §1, §2
(§6) In a final reaction volume of 25 μl, Yes (h) (5-10 mU) is incubated with 8 mM MOPS pH 7.0, 0.2 mM EDTA, 0.1 mg/ml poly(Glu, Tyr) 4:1, 10 mM MgAcetate and [γ-^33P-ATP] (specific activity approx. 500 cpm/μmol, concentration as required). The reaction is initiated by the addition of the MgATP mix. After incubation for 40 minutes at room temperature, the reaction is stopped by the addition of 5 μl of a 3% phosphoric acid solution. 10 μl of the reaction is then spotted onto a Filtermat A and washed three times for 5 minutes in 75 mM phosphoric acid and once in methanol prior to drying and scintillation counting.

A further assay deals with Fes (h) (Homo sapiens, UniProt P07332). Kind of assay: Fes human kinase assay (glass-fiber filter). Conditions: test concentration of 10^−6M; read-out: C4 score (inhibition of Fes human). As for the experimental part:
as §1, §2
as §6, with “Fes” for “Yes”, “cpm/pmol,” for “cpm/μmol,”

Chain of GSK3B (h) (P49841 whole entry): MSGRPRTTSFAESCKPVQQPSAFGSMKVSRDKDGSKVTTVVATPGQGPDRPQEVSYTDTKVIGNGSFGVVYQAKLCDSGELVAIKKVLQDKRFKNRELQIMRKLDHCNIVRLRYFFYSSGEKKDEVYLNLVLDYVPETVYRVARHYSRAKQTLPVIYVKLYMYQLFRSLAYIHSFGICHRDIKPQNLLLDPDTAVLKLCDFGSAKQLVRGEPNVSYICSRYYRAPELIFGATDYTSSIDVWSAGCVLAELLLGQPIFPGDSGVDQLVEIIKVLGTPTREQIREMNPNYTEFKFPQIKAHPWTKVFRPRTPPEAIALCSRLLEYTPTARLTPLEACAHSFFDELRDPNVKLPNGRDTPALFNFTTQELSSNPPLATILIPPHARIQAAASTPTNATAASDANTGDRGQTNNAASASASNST
Chain of EGFR (h) (P00533 25-1210): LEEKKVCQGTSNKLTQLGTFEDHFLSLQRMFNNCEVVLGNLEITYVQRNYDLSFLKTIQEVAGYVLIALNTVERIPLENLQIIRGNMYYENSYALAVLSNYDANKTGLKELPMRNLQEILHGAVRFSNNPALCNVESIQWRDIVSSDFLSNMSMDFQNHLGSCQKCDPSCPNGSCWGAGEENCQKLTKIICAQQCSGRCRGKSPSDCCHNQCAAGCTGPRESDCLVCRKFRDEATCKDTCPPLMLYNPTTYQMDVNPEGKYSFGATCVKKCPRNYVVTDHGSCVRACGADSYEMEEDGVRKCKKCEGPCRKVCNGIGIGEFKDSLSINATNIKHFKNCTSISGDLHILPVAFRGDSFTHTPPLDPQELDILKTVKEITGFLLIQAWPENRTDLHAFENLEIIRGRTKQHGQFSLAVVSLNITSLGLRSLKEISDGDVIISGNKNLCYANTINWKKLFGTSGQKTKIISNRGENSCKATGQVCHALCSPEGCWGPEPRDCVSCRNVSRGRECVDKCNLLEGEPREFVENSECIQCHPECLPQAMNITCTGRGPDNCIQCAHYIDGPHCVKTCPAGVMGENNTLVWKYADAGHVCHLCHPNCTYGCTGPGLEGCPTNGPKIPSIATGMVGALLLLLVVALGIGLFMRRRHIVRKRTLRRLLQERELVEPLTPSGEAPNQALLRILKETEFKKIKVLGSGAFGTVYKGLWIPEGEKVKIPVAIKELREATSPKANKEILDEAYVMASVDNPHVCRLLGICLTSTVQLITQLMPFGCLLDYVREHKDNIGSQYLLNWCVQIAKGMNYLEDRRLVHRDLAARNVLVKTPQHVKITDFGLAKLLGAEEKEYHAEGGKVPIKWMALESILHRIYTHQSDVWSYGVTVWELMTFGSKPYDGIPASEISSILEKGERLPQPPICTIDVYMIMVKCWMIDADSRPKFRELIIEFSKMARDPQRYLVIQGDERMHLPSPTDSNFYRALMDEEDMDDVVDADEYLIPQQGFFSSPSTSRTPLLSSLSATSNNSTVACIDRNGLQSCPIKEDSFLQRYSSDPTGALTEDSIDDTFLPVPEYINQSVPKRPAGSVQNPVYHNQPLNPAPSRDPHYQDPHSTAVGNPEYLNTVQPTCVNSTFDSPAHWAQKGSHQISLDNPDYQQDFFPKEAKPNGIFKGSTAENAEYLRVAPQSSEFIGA
Chain of Yes (h) (P07947 whole entry): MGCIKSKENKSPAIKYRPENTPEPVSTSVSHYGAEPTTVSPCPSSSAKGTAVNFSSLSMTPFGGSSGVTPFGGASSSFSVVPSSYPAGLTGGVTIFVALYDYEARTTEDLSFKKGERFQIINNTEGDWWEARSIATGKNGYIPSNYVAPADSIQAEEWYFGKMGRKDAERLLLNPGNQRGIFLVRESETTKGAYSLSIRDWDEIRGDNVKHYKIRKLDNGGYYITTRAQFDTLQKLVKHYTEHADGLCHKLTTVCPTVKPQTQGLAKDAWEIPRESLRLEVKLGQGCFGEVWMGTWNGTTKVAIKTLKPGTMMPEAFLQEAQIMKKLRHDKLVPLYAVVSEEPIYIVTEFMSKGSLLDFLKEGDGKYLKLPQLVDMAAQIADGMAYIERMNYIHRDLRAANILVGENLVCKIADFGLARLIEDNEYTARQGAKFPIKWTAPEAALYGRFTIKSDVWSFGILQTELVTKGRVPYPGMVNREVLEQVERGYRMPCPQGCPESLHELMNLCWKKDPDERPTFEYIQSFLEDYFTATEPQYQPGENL
Chain of Lck (h) (P06239 whole entry): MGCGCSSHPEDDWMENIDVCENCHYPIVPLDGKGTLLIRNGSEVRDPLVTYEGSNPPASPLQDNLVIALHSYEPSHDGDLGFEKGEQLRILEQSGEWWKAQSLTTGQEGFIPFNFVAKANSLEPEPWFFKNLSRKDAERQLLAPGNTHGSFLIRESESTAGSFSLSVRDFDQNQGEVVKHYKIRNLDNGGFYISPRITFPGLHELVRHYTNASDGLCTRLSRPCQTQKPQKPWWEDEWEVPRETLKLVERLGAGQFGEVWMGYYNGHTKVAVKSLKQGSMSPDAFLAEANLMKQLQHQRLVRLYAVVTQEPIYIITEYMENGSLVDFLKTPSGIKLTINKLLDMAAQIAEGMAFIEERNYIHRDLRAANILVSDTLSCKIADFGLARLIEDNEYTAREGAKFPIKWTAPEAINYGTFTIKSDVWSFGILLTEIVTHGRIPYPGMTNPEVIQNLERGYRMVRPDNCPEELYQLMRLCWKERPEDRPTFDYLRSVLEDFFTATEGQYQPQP
Chain of Lyn (h) (P07948 whole entry): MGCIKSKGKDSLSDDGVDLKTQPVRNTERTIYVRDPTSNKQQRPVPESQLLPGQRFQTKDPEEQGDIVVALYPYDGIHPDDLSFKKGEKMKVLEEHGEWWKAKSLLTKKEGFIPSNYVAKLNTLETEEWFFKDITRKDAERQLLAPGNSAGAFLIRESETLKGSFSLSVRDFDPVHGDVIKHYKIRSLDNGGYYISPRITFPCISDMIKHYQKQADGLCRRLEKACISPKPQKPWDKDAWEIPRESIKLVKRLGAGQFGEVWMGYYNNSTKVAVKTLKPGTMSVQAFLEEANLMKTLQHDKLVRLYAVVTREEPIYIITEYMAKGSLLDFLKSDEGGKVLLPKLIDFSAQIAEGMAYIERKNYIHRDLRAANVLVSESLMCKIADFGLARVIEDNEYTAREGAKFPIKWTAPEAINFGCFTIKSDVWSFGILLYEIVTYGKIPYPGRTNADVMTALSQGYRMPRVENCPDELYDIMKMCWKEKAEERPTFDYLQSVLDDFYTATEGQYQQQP
Chain of Flt3 (h) (P36888 27-993): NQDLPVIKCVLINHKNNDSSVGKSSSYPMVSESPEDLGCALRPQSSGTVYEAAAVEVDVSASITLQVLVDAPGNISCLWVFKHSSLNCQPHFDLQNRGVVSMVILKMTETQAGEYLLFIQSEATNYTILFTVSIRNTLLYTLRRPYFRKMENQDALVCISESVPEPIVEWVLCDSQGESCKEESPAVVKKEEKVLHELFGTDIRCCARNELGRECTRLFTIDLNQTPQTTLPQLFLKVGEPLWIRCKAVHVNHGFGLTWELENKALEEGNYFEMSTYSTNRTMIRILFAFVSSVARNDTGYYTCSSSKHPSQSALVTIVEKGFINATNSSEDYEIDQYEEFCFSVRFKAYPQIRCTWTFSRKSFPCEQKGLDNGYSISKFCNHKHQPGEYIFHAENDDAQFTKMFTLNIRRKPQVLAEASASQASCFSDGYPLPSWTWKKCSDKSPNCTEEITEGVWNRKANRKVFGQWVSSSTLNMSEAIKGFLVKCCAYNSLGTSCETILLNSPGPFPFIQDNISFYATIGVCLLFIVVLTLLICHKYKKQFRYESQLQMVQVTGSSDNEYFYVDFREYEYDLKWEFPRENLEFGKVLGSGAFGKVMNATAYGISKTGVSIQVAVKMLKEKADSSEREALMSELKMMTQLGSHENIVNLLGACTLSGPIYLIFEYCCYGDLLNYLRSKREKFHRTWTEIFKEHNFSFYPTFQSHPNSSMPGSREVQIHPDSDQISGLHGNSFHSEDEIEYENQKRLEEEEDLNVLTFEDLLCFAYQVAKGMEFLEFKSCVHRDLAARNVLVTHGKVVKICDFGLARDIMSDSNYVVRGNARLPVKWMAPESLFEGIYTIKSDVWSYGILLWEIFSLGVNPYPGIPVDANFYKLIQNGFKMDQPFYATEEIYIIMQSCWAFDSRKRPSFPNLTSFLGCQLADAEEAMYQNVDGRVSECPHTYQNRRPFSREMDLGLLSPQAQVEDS
Chain of cSRC (h) (P12931 whole entry): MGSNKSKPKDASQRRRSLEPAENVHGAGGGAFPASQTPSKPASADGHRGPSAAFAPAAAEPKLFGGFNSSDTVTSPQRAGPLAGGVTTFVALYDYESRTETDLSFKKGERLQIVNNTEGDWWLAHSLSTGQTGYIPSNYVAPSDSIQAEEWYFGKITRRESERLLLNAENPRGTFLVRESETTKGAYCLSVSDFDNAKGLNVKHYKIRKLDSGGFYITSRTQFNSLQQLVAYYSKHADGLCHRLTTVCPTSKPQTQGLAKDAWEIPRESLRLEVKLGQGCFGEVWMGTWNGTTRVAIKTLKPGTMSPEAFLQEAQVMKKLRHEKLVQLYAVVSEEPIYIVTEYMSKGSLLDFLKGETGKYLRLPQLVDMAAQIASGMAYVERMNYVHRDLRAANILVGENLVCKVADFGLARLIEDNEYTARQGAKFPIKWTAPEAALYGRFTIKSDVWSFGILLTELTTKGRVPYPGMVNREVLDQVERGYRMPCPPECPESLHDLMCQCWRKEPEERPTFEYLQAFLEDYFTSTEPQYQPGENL

A word on the inhibition: it is the relative decrease from the control value, in per cent. As for `O=C1NCCCCOc2cccc(c2)Nc2ccnc(n2)Nc2cccc1c2` [Compound 19, 14-oxa-2,4,8,19,27-pentaazatetracyclo[19.3.1.1~3,7~.1~9,13~]heptacosa-1(25),3,5,7(27),9,11,13(26),21,23-nonaen-20-one], the inhibition at 1 µM at Abl (h) was 10 to 30%; at cSRC (h), 10 to 30%; at EGFR (h) (read-out: C4 score (inhibition of EGFR human)), 10 to 30%; on Flt3 (h), 30 to 60%; on Fms (h) it was 10 to 30%; at GSK3B (h), 10 to 30%. The inhibition at 1 µM at Lck (h) lay within 30 to 60%; at Lyn (h) it was 10 to 30%; on Yes (h), 30 to 60%.

Regarding `N#Cc1cnc2nc1Nc1cccc(c1)OCCCCOc1cccc(c1)N2` [Compound 2, 14,19-dioxa-2,4,8,26-tetraazatetracyclo[18.3.1.1˜3,7˜.1˜9,13˜]hexacosa-1(24),3,5,7(26),9,11,13(25),20,22-nonaene-6-carbonitrile], the inhibition at 1 µM on Abl (h) was 10 to 30%; on cSRC (h) it was 30 to 60%; at Fes (h) it was 10 to 30%; on Flt3 (h), above 80%; on Fms (h), 30 to 60%; on GSK3B (h) it was 60 to 80%. Further, the figures for the inhibition at 1 µM at Lck (h), on Lyn (h) and on Yes (h) were 30 to 60%, 10 to 30% and 30 to 60%, respectively.

`COc1ccc2cc1OCCNC(=O)[C@@H]1CCCN1Cc1cc(F)c(Cl)cc1Nc1nc(ncc1C#N)N2` [Compound 31, 21,17-metheno-15,11-nitrilo-16H-pyrrolo[2,1-r][13,1,5,7,16,19]benzoxapentaazacyclodocosine-12-carbonitrile, 8-chloro-7-fluoro-1,2,3,5,10,23,24,25,26,26a-decahydro-20-methoxy-26-oxo-, (26aS)-]: the “C1 score (inhibition of Abl human)” value on Abl (h) is 2 (Score 2=30-60% inhibition). Also, the “C3 score (inhibition of cSRC human)” value on cSRC (h) is 2 (Score 2=30-60% inhibition). Moreover, at EGFR (h), the “C4 score (inhibition of EGFR human)” value is 2 (Score 2=30-60% inhibition). Also, the “C6 score (inhibition of Flt3 human)” value on Flt3 (h) is 2 (Score 2=30-60% inhibition). Besides, the “C8 score (inhibition of GSK3β human)” value on GSK3B (h) is reported as 1 (Score 1=10-30% inhibition). Moreover, at Lck (h), the “C9 score (inhibition of Lck human)” value is on record as 3 (Score 3=60-80% inhibition). Moreover, the “C10 score (inhibition of Lyn human)” value on Lyn (h) is on record as 4 (Score 4=>80% inhibition). The “C11 score (inhibition of Yes human)” value on Yes (h) is on record as 4 (Score 4=>80% inhibition).

As to `COc1cc2cc(c1)OCCCCCCOc1ccc(Br)cc1Nc1cc(ncn1)N2` [Compound 40, 1H,7H-6,2: 8,12-dimetheno-13,20,1,3,5,7-benzodioxatetraazacyclodocosine, 23-bromo-14,15,16,17,18,19-hexahydro-10-methoxy-], the “C4 score (inhibition of EGFR human)” value on EGFR (h) was 4 (Score 4=>80% inhibition). The “C6 score (inhibition of Flt3 human)” value on Flt3 (h) was 1 (Score 1=10-30% inhibition). In addition, the “C8 score (inhibition of GSK3β human)” value on GSK3B (h) is 1 (Score 1=10-30% inhibition). The “C9 score (inhibition of Lck human)” value at Lck (h) is on record as 1 (Score 1=10-30% inhibition). The “C11 score (inhibition of Yes human)” value on Yes (h) is recorded as 4 (Score 4=>80% inhibition).

For the origin of these results see US8148388B2, “2,4 (4,6) pyrimidine derivatives” (Janssen Pharmaceutica, N.V., priority 2004, dated 2012).
